Assay [1] relates to U2OS. Kind of assay: In vitro effect on the S phase of cell cycle of U2OS cells upon incubation at 37 degree for 24 hours in FCM assay at concentration of 500 nM. The class given is functional, Homo sapiens.
Assay [2] deals with U2OS. Briefly: In vitro effect on the G1 phase of cell cycle of U2OS cells upon incubation at 37 degree for 24 hours in FCM assay at concentration of 500 nM. The format is functional, Homo sapiens.
Assay [3] has as its system U2OS. Kind of assay: In vitro effect on the G2/M phase of cell cycle of U2OS cells upon incubation at 37 degree for 24 hours in FCM assay at concentration of 500 nM. The format is functional, Homo sapiens.
Assay [4] has as its system U2OS. Briefly: In vitro effect on the G2/M phase of cell cycle of U2OS cells upon incubation at 37 degree for 24 hours in FCM assay; all the cell died at tested concentration (500 nM). The class given is functional, cell-based. The following applies: Homo sapiens.
The test system of assay [5] is U2OS. Briefly: In vitro effect on the S phase of cell cycle of U2OS cells upon incubation at 37 degree for 24 hours in FCM assay; all the cell died at tested concentration (500 nM). The class given is functional, cell-based. As to conditions: Homo sapiens.
The subject of assay [6] is U2OS. Briefly: In vitro effect on the G1 phase of cell cycle of U2OS cells upon incubation at 37 degree for 24 hours in FCM assay; all the cell died at tested concentration (500 nM). The format is functional, cell-based. As to conditions: Homo sapiens.

The structures appear in SMILES notation.

Regarding `COc1ccc(-c2c(C(F)(F)F)oc3cc(OC)cc(OC)c3c2=O)cc1`, the Activity is 48.02% in assay [1], 46.69% in assay [2] and 5.29% in assay [3].
Turning to `COc1cc(OC)c2c(=O)cc(-c3cc(C(F)(F)F)c(OC)c(C(F)(F)F)c3)oc2c1`, the “Content of cell cycle” value turned out to be 44.92% in assay [1], 55.08% in assay [2] and 0% in assay [3].
As to `COc1cc(OC)c2c(=O)c(C(F)(F)F)c(-c3ccccc3)oc2c1`, the “Content of cell cycle” value in assay [1] is 31.95%; in assay [2], 53.06%; in assay [3], 14.99%.
In the same order, the values of `COc1ccc(-c2oc3cc(OC)cc(OC)c3c(=O)c2C(F)(F)F)cc1` are 49.24%, 44.09% and 6.67%.
On to `COc1cc(OC)c2c(c1)OC(c1ccccc1)=CC2(O)C(F)(F)F` (stereo not given), for which the Activity entry in assay [4], in assay [5] and in assay [6] was “all the cells died at tested concentration (500 nM)” in each case.
